Results reported in BindingDB's records for doi:10.1021/jm00034a016 (Merck Research Laboratories, 1994).

Molecular target: T1, Dimer of Gag-Pol polyprotein [489-587] (Human immunodeficiency virus 1, UniProt P12497)
T1 construct: 489-587
Assay: Protease Inhibition Assay
Conditions: pH 5.5; 30 °C
Protocol: The IC50 values for the compounds were determined using purified HIV-1 Protease. Inhibition of the cleavage of the peptide H-Val-Ser-Gln-Asn-(L-beta-napthylalanine)-Pro-Ile-Val-OH was assessed at 30 °C, pH = 5.5 with [Enzyme] = 30 pM for 1 h, using HPLC with UV detection for quantification of the products. For the IC50 data a substrate concentration of 0.4 mg/mL was used, and data was fit to a four parameter sigmoidal equation.

In the case of `C[C@@H]1[C@H](OC(=O)N[C@@H](Cc2ccccc2)[C@H](O)CN2C[C@H]3CCCC[C@H]3C[C@H]2C(=O)NC(C)(C)C)CCS1(=O)=O` [N-tert-butyldecahydro-2-[2(R)-hydroxy-4-phenyl-3(S)-[[[[4 (S)-methyl-(3 R)-l , l-dioxotetrahydrothiophene-3-yl]-oxy]carbonyl]amino]butyl]-(4aS,8aS)-isoquinoline-3(S)-carboxamide], the IC50 is reported as 22.3 nM.

`C[C@H]1[C@@H](OC(=O)N[C@@H](Cc2ccccc2)[C@H](O)CN2C[C@H]3CCCC[C@H]3C[C@H]2C(=O)NC(C)(C)C)CCS1(=O)=O` [N-tert-butyldecahydro-2-[2(R)-hydroxy-4-phenyl-3(S)-[[[[2 (S)-methyl-(3 S)-l , l-dioxotetrahydrothiophene-3-yl]-oxy]carbonyl]amino]butyl]-(4aS,8aS)-isoquinoline-3(S)-carboxamide] was tested, and the IC50 was 11.4 nM.

Work on `C[C@H]1OCC[C@H]1OC(=O)N[C@@H](Cc1ccccc1)[C@H](O)CN1C[C@H]2CCCC[C@H]2C[C@H]1C(=O)NC(C)(C)C` [Isoquinoline furanyl urethane analog] yielded an IC50 of 169 nM.

For `C[C@@H]1OCC[C@@H]1OC(=O)N[C@@H](Cc1ccccc1)[C@H](O)CN1C[C@H]2CCCC[C@H]2C[C@H]1C(=O)NC(C)(C)C` [(2S,3S)-2-methyloxolan-3-yl N-[(2S,3R)-4-[(3S,4aS,8aS)-3-(tert-butylcarbamoyl)-decahydroisoquinolin-2-yl]-3-hydroxy-1-phenylbutan-2-yl]carbamate], the IC50 was 52.4 nM.
